Patent publication US20250092014A1, “COMPOUNDS AND METHODS OF ACTIVATING LIPOPROTEIN LIPASE” (Metrea Biosciences, Inc., priority 2021, published 2025)

Columns and labels:
[1] = molecular target: T1, LPL (native bovine milk protein) inactivated by ANGPTL4 (Bos taurus, UniProt P11151); assay: LPL ANGPTL4 protection assay (LPL fluorescence assay, resorufin butyrate substrate); format: biochemical; conditions: LPL activation activity, LPL 2.5 nM, ANGPTL4 20 nM
T1 construct: from tissue; host or cells: bovine milk (LPL); E. coli (GST-ANGPTL4)
T1 sequence (P11151 29-478): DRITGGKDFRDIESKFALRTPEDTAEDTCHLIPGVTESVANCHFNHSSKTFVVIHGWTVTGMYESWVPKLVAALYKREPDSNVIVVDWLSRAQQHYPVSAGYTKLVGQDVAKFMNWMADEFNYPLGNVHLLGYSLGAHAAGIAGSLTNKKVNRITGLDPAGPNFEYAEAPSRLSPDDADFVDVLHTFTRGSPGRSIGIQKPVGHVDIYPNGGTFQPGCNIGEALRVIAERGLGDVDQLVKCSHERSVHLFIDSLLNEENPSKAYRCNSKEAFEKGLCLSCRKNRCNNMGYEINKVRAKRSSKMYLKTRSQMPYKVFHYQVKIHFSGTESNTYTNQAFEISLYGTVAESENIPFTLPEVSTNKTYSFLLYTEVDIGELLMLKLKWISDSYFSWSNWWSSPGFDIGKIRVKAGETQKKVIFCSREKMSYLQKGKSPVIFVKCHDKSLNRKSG
Experimental: LPL is inactivated by angiopoietin-like 4 (ANGPTL4). Compounds of the present disclosure were for activity using the following protection assay. Briefly, the assay was performed in a black opaque 96-well microtiter plate with final volume of 100 μL using a buffer consisting of 50 mM HEPES (pH 7.2), 150 mM NaCl and 0.03% Triton X-100. Compounds were prepared as 10 mM stocks in DMSO, with subsequent serial dilutions performed in DMSO. Two microliters of test compounds were added to the microtiter plate, followed by 49-PL of LPL (native bovine milk protein affinity purified using heparin-affinity chromatography) in assay buffer. The plate contents were mixed using an orbital shaker and allowed to incubate for 5 minutes at room temperature. The enzymatic assay was initiated by the addition of a mixture of 49 μL of 50 μM resorufin butyrate (Santa Cruz #sc-208302; prepared from a 10 mM DMSO stock) and ANGPTL4 (N-terminal GST construct consisting of residues 26-164 expressed in E. coli) in assay buffer. The final concentrations of LPL and ANGPTL4 were 2.5 nM and 20 nM, respectively. The assay was allowed to proceed at 30° C. for 25 minutes with kinetic monitoring (Ex560/Em585) followed by an endpoint reading which was used for analysis.
Data was analyzed in Graphpad Prism (version 6.0, GraphPad Software, Inc., San Diego, CA) using a variable slope four parameter fit of the equation:
Y=Bottom+(Top-Bottom)/(1+10^((Log EC50−X)*HillSlope)),
where X is the concentration of test compound, Y corresponds to the amount of product expressed in relative fluorescence units, and Top and Bottom refer to the plateaus of the curve. Percent activation (protection) of test compound was calculated relative to zero effect wells (ZEW; LPL, ANGPTL4 and substrate) and maximum effect wells (MEW; LPL plus substrate): ((test well−ZEW)/(MEW−ZEW))*100.

C57BL/6 mice = assay: Oral fat tolerance test (postprandial triglyceridaemia after olive oil bolus); format: in vivo; conditions: overnight-fasted C57BL/6 mice, compound IP 1 h before 10 mL/kg olive oil, bled at 1, 2 and 3.5 h
Experimental: To examine to effects of test compounds on postprandial triglycerdemia, 5-7 week old C57BL/6 mice were fasted overnight (18 hours) on non-nutritive bedding (Alpha-Dri). Following the overnight fast, the mice are bled via retro-orbital sinus (25 μL) using microcapillaries (t-1 hr sample). The LPL activator test compound was then administered intraperitoneally (IP) in a dose volume of 10 ml/kg. One hour later the mice were bled for the t=0 timepoint. The mice were then immediately dosed with a 10 mL/kg oral bolus of olive oil. The mice were subsequently bled at 1-, 2-, and 3.5-hours post-olive oil administration.
Whole blood samples were collected into tubes containing 0.125% EDTA solution in saline. Diluted plasma samples were analyzed for triglyceride levels using Infinity Triglyceride reagent (Thermo) on a microtiter plate. Briefly, 10 μL of diluted sample was added the plate. 200 μL of the reagent was added and the plate was incubated for 10 minutes at 37° C. The plate was then read at 550 nm on a Molecular Devices M5 Spectrophotometer (San Jose, CA). The concentration of triglycerides in the sample was determined using a standard curve made using a dilution of triglyceride standard (Sigma-Aldrich, St. Louis, MO) using the Softmax software from Molecular Devices. All graphing and subsequent area under-the-curve and statistical analysis (Student's t Test) is performed using GraphPad Prism (version 8.0, GraphPad Software, Inc., San Diego, CA).

Question: What does the source list for `O=C(O)Cc1cc(F)ccc1NC(=O)c1ccc(N2CCCCC2)c(NC(=O)c2nn(CC(F)(F)F)c3ccccc23)c1` [Compound 158, 2-(5-fluoro-2-(4-(piperidin-1-yl)-3-(1-(2,2,2-trifluoroethyl)-1H-indazole-3-carboxamido)benzamido)phenyl)acetic acid]?
Answer: EC50 [1]: 1.01 µM; hypertriglyceridemia response to oral olive oil gavage (plasma triglycerides) (C57BL/6 mice): blunts hypertriglyceridemia response in a dose-dependent fashion
